From US20170240556A1, “BIFLUORODIOXALANE-AMINO-BENZIMIDAZOLE KINASE INHIBITORS FOR THE TREATMENT OF CANCER, AUTOIMMUNEINFLAMMATION AND CNS DISORDERS” (4SC DISCOVERY GMBH, priority 2012, published 2017) come the findings set out here.

For test [1], the target named is Casein kinase 1 delta (CSKN1D) (Homo sapiens, UniProt P48730). Description: Casein kinase assay, CK1 delta. To be noted: recombinant CSKN1D 5 nM, ATP 10 μM. The class given is biochemical.
Test [2] concerns the target Casein kinase 1 epsilon (CSKN1E) (Homo sapiens, UniProt P49674). Briefly: Casein kinase assay, CK1 epsilon. Type of test: biochemical. As to conditions: recombinant CSKN1E 30 nM, ATP 10 μM. The protocol:
The recombinant protein Casein kinase 1 delta (CSKN1D) was added to the substrate solution in a concentration of 5 nM and gently mixed. Dilution series in of compounds of the present invention in DMSO were added to the reaction mixture, followed after 20 min by addition of a mixture of ATP and ^33P-ATP (specific activity 0.01 μCi/μl final) to a final concentration of 10 μM. Reactions were carried out at 25° C. for 120 min, followed by spotting the reactions onto P81 ion exchange filter paper. Unbound phosphate was removed by washing of the filters in 0.75% phosphoric acid. […] IC50 values and curve fits were obtained using the program Prism® (Graph Pad Software).
The above assay was also used to determine the inhibitory capacity of the compounds of the present invention on Casein Kinase 1 epsilon, wherein instead of CSKN1D, recombinant protein Casein kinase 1 epsilon (CSKN1E) was added to the substrate solution in a concentration of 30 nM and gently mixed.

The structures appear in SMILES notation.

Sequence of Casein kinase 1 delta (CSKN1D) (P48730 whole entry): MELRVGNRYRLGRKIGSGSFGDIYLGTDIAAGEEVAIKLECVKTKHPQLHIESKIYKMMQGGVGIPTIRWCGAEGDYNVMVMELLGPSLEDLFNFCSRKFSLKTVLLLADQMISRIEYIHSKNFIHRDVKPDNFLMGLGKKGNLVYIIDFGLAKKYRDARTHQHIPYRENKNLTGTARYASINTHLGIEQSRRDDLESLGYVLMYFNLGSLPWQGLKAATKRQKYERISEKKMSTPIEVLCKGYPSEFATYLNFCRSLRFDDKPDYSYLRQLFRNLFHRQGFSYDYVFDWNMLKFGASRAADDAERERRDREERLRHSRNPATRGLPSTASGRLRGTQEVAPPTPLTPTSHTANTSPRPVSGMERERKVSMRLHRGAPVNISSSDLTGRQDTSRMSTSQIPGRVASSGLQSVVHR
Sequence of Casein kinase 1 epsilon (CSKN1E) (P49674 whole entry): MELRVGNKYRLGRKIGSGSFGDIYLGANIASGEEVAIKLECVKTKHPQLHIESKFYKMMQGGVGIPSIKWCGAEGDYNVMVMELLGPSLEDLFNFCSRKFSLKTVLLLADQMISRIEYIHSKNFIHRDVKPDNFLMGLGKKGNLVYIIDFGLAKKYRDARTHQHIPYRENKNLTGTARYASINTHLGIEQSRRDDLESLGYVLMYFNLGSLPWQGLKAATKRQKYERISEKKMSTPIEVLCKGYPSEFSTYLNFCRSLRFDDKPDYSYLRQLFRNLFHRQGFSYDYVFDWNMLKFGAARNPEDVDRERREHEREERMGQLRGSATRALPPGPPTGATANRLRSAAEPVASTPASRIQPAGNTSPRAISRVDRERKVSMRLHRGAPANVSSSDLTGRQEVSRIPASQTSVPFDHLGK

The IC50 is the concentration that gives 50% inhibition. As for `O=C(Nc1nc2cc3c(cc2[nH]1)OC(F)(F)O3)c1csc(-c2ccc3c(c2)OCO3)n1` [Compound 39, 2-(benzo[d][1,3]dioxol-5-yl)-N-(2,2-difluoro-5H-[1,3]dioxolo[4′,5′:4,5]benzo[1,2-d]imidazol-6-yl)thiazole-4-carboxamide], the IC50 is over 1000 nM in test [1] and 200 to 1000 nM in test [2].

Consider `O=C(Nc1nc2cc3c(cc2[nH]1)OC(F)(F)O3)c1coc(-c2ccc3c(c2)CCO3)n1` [Compound 40, N-(2,2-difluoro-5H-[1,3]dioxolo[4′,5′:4,5]benzo[1,2-d]imidazol-6-yl)-2-(2,3-dihydrobenzofuan-5-yl)oxazole-4-carboxamide], for which the IC50 in test [1] and in test [2] was over 1000 nM throughout.

For the compound `O=C(Nc1nc2cc3c(cc2[nH]1)OC(F)(F)O3)c1cccc(Cl)c1` [Compound 41, 3-chloro-N-(2,2-difluoro-5H-[1,3]dioxolo[4′,5′:4,5]benzo[1,2-d]imidazol-6-yl)benzamide], the 50% inhibitory concentration (IC50) in test [1] and in test [2] was under 200 nM throughout.

With `Cc1nnsc1C(=O)Nc1nc2cc3c(cc2[nH]1)OC(F)(F)O3` [Compound 42, N-(2,2-difluoro-5H-[1,3]dioxolo[4′,5′:4,5]benzo[1,2-d]imidazol-6-yl)-4-methyl-1,2,3-thiadiazole-5-carboxamide], the IC50 in test [1] and in test [2] was over 1000 nM throughout.

On to `O=C(Nc1nc2cc3c(cc2[nH]1)OC(F)(F)O3)c1ccc(Cl)cc1Cl` [Compound 43, 2,4-dichloro-N-(2,2-difluoro-5H-[1,3]dioxolo[4′,5′:4,5]benzo[1,2-d]imidazol-6-yl)benzamide], for which the half-inhibitory concentration (IC50) in test [1] and in test [2] was 200 to 1000 nM in each case.

Regarding `O=C(Nc1nc2cc3c(cc2[nH]1)OC(F)(F)O3)c1cscn1` [Compound 44, N-(2,2-difluoro-5H-[1,3]dioxolo[4′,5′:4,5]benzo[1,2-d]imidazol-6-yl)thiazole-4-carboxamide], the IC50 in test [1] and in test [2] was 200 to 1000 nM each time.

Consider `O=C(Nc1nc2cc3c(cc2[nH]1)OC(F)(F)O3)c1cccs1` [Compound 45, N-(2,2-difluoro-5H-[1,3]dioxolo[4′,5′:4,5]benzo[1,2-d]imidazol-6-yl)thiophene-2-carboxamide], for which the IC50 in test [1] and in test [2] was 200 to 1000 nM each time.

Take `COc1ccc(C(=O)Nc2nc3cc4c(cc3[nH]2)OC(F)(F)O4)cc1` [Compound 46, N-(2,2-difluoro-5H-[1,3]dioxolo[4′,5′:4,5]benzo[1,2-d]imidazol-6-yl)-4-methoxybenzamide]: the IC50 in test [1] and in test [2] was 200 to 1000 nM throughout.

On to `O=C(Nc1nc2cc3c(cc2[nH]1)OC(F)(F)O3)c1ccccc1OC(F)(F)F` [Compound 47, N-(2,2-difluoro-5H-[1,3]dioxolo[4′,5′:4,5]benzo[1,2-d]imidazol-6-yl)-2-(trifluoromethoxy)benzamide], for which the results for the IC50 in test [1] and in test [2] were 200 to 1000 nM and over 1000 nM, respectively.

Turning to `O=C(Nc1nc2cc3c(cc2[nH]1)OC(F)(F)O3)c1cnc(NC(=O)c2ccccc2OC(F)(F)F)o1` [Compound 48, N-(2,2-difluoro-5H-[1,3]dioxolo[4′,5′:4,5]benzo[1,2-d]imidazol-6-yl)-2-(2-(trifluoromethoxy)benzamido)oxazole-5-carboxamide], the figures for the IC50 in test [1] and in test [2] were under 200 nM and 200 to 1000 nM, respectively.

Take `O=C(Nc1nc2cc3c(cc2[nH]1)OC(F)(F)O3)c1ccccc1` [Compound 49, N-(2,2-difluoro-5H-[1,3]dioxolo[4′,5′:4,5]benzo[1,2-d]imidazol-6-yl)benzamide]: the IC50 in test [1] and in test [2] was under 200 nM throughout.

Take `O=C(Nc1nc2cc3c(cc2[nH]1)OC(F)(F)O3)c1nc(NC(=O)c2ccc(Cl)cc2Cl)n[nH]1` [Compound 51, 3-(2,4-dichlorobenzamido)-N-(2,2-difluoro-5H-[1,3]dioxolo[4′,5′:4,5]benzo[1,2-d]imidazol-6-yl)-1H-1,2,4-triazole-5-carboxamide]: the IC50 is under 200 nM in test [1] and 200 to 1000 nM in test [2].

`O=C(Nc1nc2cc3c(cc2[nH]1)OC(F)(F)O3)c1nc(NC(=O)c2ccccc2OC(F)(F)F)n[nH]1` [Compound 52, N-(2,2-difluoro-5H-[1,3]dioxolo[4′,5′:4,5]benzo[1,2-d]imidazol-6-yl)-3-(2-(trifluoromethoxy)benzamido)-1H-1,2,4-triazole-5-carboxamide]: the IC50 in test [1] was under 200 nM; in test [2], 200 to 1000 nM.

In the case of `O=C(Nc1nc2cc3c(cc2[nH]1)OC(F)(F)O3)c1c(F)cccc1F` [Compound 54, N-(2,2-difluoro-5H-[1,3]dioxolo[4′,5′:4,5]benzo[1,2-d]imidazol-6-yl)-2,6-difluorobenzamide], the IC50 in test [1] was 200 to 1000 nM; in test [2], over 1000 nM.

Take `O=C(Nc1nc2cc3c(cc2[nH]1)OC(F)(F)O3)c1csc(Br)n1` [Compound 55, 2-bromo-N-(2,2-difluoro-5H-[1,3]dioxolo[4′,5′:4,5]benzo[1,2-d]imidazol-6-yl)thiazole-4-carboxamide]: the IC50 in test [1] and in test [2] was 200 to 1000 nM throughout.

Regarding `O=C(Nc1nc(C(=O)Nc2nc3cc4c(cc3[nH]2)OC(F)(F)O4)ns1)c1cccc(Cl)c1` [Compound 57], the IC50 in test [1] and in test [2] was under 200 nM throughout.

As for `O=C(Nc1n[nH]c(C(=O)Nc2nc3cc4c(cc3[nH]2)OC(F)(F)O4)n1)c1ccc([N+](=O)[O-])cc1` [Compound 61, N-(2,2-difluoro-5H-[1,3]dioxolo[4′,5′:4,5]benzo[1,2-d]imidazol-6-yl)-3-(4-nitrobenzamido)-1H-1,2,4-triazole-5-carboxamide], the IC50 in test [1] and in test [2] was over 1000 nM each time.

As for `Cc1ccccc1C(=O)Nc1nc2cc3c(cc2[nH]1)OC(F)(F)O3` [Compound 68, N-(2,2-difluoro-5H-[1,3]dioxolo[4′,5′:4,5]benzo[1,2-d]imidazol-6-yl)-2-methylbenzamide], the half-maximal inhibitory concentration (IC50) is 200 to 1000 nM in test [1] and over 1000 nM in test [2].

As to `COc1ccc(C(=O)Nc2nc(C(=O)Nc3nc4cc5c(cc4[nH]3)OC(F)(F)O5)cs2)cc1` [Compound 69, N-(2,2-difluoro-5H-[1,3]dioxolo[4′,5′:4,5]benzo[1,2-d]imidazol-6-yl)-2-(4-methoxybenzamido)thiazole-4-carboxamide], the IC50 in test [1] is under 200 nM; in test [2], 200 to 1000 nM.

Take `Nc1sccc1C(=O)Nc1nc2cc3c(cc2[nH]1)OC(F)(F)O3` [Compound 79, 2-amino-N-(2,2-difluoro-5H-[1,3]dioxolo[4′,5′:4,5]benzo[1,2-d]imidazol-6-yl)thiophene-3-carboxamide]: the IC50 in test [1] and in test [2] was 200 to 1000 nM in each case.

`NS(=O)(=O)c1cc(C(=O)Nc2nc3cc4c(cc3[nH]2)OC(F)(F)O4)cs1` [Compound 83, N-(2,2-difluoro-5H-[1,3]dioxolo[4′,5′:4,5]benzo[1,2-d]imidazol-6-yl)-5-sulfamoylthiophene-3-carboxamide]: the IC50 in test [1] and in test [2] was under 200 nM in each case.

Consider `O=C(Nc1nc2cc3c(cc2[nH]1)OC(F)(F)O3)c1ncn[nH]1` [Compound 84, N-(2,2-difluoro-5H-[1,3]dioxolo[4′,5′:4,5]benzo[1,2-d]imidazol-6-yl)-1H-1,2,4-triazole-3-carboxamide], for which the IC50 in test [1] and in test [2] was over 1000 nM throughout.

On to `CS(=O)(=O)c1ccc(C(=O)Nc2nc3cc4c(cc3[nH]2)OC(F)(F)O4)s1` [Compound 85, N-(2,2-difluoro-5H-[1,3]dioxolo[4′,5′:4,5]benzo[1,2-d]imidazol-6-yl)-5-(methylsulfonyl)thiophene-2-carboxamide], for which the IC50 in test [1] and in test [2] was 200 to 1000 nM in each case.

Consider `O=C(Nc1nc2cc3c(cc2[nH]1)OC(F)(F)O3)c1cc(Cl)ccc1O` [Compound 86, 5-chloro-N-(2,2-difluoro-5H-[1,3]dioxolo[4′,5′:4,5]benzo[1,2-d]imidazol-6-yl)-2-hydroxybenzamide], for which the half-inhibitory concentration (IC50) in test [1] and in test [2] was over 1000 nM in each case.

In the case of `Nc1cccc(C(=O)Nc2nc3cc4c(cc3[nH]2)OC(F)(F)O4)c1` [Compound 87, 3-amino-N-(2,2-difluoro-5H-[1,3]dioxolo[4′,5′:4,5]benzo[1,2-d]imidazol-6-yl)benzamide], the results for the IC50 in test [1] and in test [2] were under 200 nM and 200 to 1000 nM, respectively.

On to `O=C(Nc1nc2cc3c(cc2[nH]1)OC(F)(F)O3)c1cc([N+](=O)[O-])c[nH]1` [Compound 88, N-(2,2-difluoro-5H-[1,3]dioxolo[4′,5′:4,5]benzo[1,2-d]imidazol-6-yl)-4-nitro-1H-pyrrole-2-carboxamide], for which the IC50 in test [1] and in test [2] was under 200 nM each time.

For `Cc1ccc(C(=O)Nc2nc(C(=O)Nc3nc4cc5c(cc4[nH]3)OC(F)(F)O5)ns2)cc1` [Compound 89, N-(2,2-difluoro-5H-[1,3]dioxolo[4′,5′:4,5]benzo[1,2-d]imidazol-6-yl)-5-(4-methylbenzamido)-1,2,4-thiadiazole-3-carboxamide], the IC50 in test [1] and in test [2] was 200 to 1000 nM each time.

For `COc1ccc(C(=O)Nc2nc(C(=O)Nc3nc4cc5c(cc4[nH]3)OC(F)(F)O5)ns2)cc1` [Compound 90, N-(2,2-difluoro-5H-[1,3]dioxolo[4′,5′:4,5]benzo[1,2-d]imidazol-6-yl)-5-(4-methoxybenzamido)-1,2,4-thiadiazole-3-carboxamide], the IC50 in test [1] and in test [2] was over 1000 nM in each case.

For the compound `O=C(Nc1nc(C(=O)Nc2nc3cc4c(cc3[nH]2)OC(F)(F)O4)ns1)c1ccc(Cl)cc1` [Compound 91], the half-inhibitory concentration (IC50) in test [1] and in test [2] was under 200 nM in each case.
